Species: Rattus norvegicus
Assay: DrugMatrix - Regimen: Daily Repeat
Type: toxicity, organism-based, Sprague-Dawley
Set-up: regimen Daily Repeat, gender Male, age 6-8 weeks
Settings: in vivo, po, route oral GAVAGE, […]; for ABSOLUTE BASOPHIL / ABSOLUTE EOSINOPHIL / ABSOLUTE LYMPHOCYTE / ABSOLUTE MONOCYTE / ABSOLUTE SEGMENTED NEUTROPHIL / BASOPHIL / EOSINOPHIL / ERYTHROCYTE COUNT / HEMATOCRIT / HEMOGLOBIN / LEUKOCYTE COUNT / LYMPHOCYTE / MEAN CORPUSCULAR HEMOGLOBIN / MEAN CORPUSCULAR HEMOGLOBIN CONCENTRATION / MEAN CORPUSCULAR VOLUME / MONOCYTE / NEUTROPHIL / NUCLEATED RED BLOOD CELLS / PLATELET COUNT: tissue Blood; for ALANINE AMINOTRANSFERASE / ALBUMIN / ALKALINE PHOSPHATASE / ASPARTATE AMINOTRANSFERASE / BLOOD UREA NITROGEN / CARBON DIOXIDE / CHLORIDE / CHOLESTEROL / CREATINE PHOSPHOKINASE / CREATININE / GLUCOSE / LACTATE DEHYDROGENASE / LIPASE / PHOSPHORUS / POTASSIUM / SODIUM / TOTAL BILIRUBIN / TOTAL PROTEIN / URIC ACID: tissue Plasma
[1] = 0 mg/kg, 72 h, dose level Control, time 3 day
[2] = 0 mg/kg, 120 h, dose level Control, time 5 day
[3] = 72 h, dose 4.2 mg/Kg, dose level Low, time 3 day
[4] = 120 h, dose 4.2 mg/Kg, dose level Low, time 5 day

O=NN(CCCl)C(=O)NC1CCCCC1 [LOMUSTINE]
ABSOLUTE BASOPHIL [1]: 0 CELLS/uL
ABSOLUTE EOSINOPHIL [1]: 70.67 CELLS/uL
ABSOLUTE LYMPHOCYTE [1]: 12761.5 CELLS/uL
ABSOLUTE MONOCYTE [1]: 214.17 CELLS/uL
ABSOLUTE SEGMENTED NEUTROPHIL [1]: 987 CELLS/uL
BASOPHIL [1]: 0%
EOSINOPHIL [1]: 0.5%
ERYTHROCYTE COUNT [1]: 5.61 x10E6/uL
HEMATOCRIT [1]: 35.22%
HEMOGLOBIN [1]: 13.57 G/DL
LEUKOCYTE COUNT [1]: 14.03 x10E3/uL
LYMPHOCYTE [1]: 91%
MEAN CORPUSCULAR HEMOGLOBIN [1]: 24.25 pg
MEAN CORPUSCULAR HEMOGLOBIN CONCENTRATION [1]: 38.52 G/DL
MEAN CORPUSCULAR VOLUME [1]: 62.9 fL
MONOCYTE [1]: 1.5%
NEUTROPHIL [1]: 7%
NUCLEATED RED BLOOD CELLS [1]: 0 /100WBC
PLATELET COUNT [1]: 997.5 x10E3/uL
ALANINE AMINOTRANSFERASE [1]: 66.5 u/L
ALBUMIN [1]: 3.98 G/DL
ALKALINE PHOSPHATASE [1]: 350 u/L
ASPARTATE AMINOTRANSFERASE [1]: 83.83 u/L
BLOOD UREA NITROGEN [1]: 12.33 mg/dL
CARBON DIOXIDE [1]: 30.33 mmol/L
CHLORIDE [1]: 100 MEQ/L
CHOLESTEROL [1]: 75 mg/dL
CREATINE PHOSPHOKINASE [1]: 200 u/L
CREATININE [1]: 0.17 mg/dL
GLUCOSE [1]: 170 mg/dL
LACTATE DEHYDROGENASE [1]: 89.33 u/L
LIPASE [1]: 10.33 u/L
PHOSPHORUS [1]: 10.88 mg/dL
POTASSIUM [1]: 6.13 MEQ/L
SODIUM [1]: 140.53 MEQ/L
TOTAL BILIRUBIN [1]: 0.2 mg/dL
TOTAL PROTEIN [1]: 5.67 G/DL
URIC ACID [1]: 1.6 mg/dL
ABSOLUTE BASOPHIL [2]: 0 CELLS/uL
ABSOLUTE EOSINOPHIL [2]: 0 CELLS/uL
ABSOLUTE LYMPHOCYTE [2]: 9526.67 CELLS/uL
ABSOLUTE MONOCYTE [2]: 134.17 CELLS/uL
ABSOLUTE SEGMENTED NEUTROPHIL [2]: 922.5 CELLS/uL
BASOPHIL [2]: 0%
EOSINOPHIL [2]: 0%
ERYTHROCYTE COUNT [2]: 5.58 x10E6/uL
HEMATOCRIT [2]: 34.78%
HEMOGLOBIN [2]: 13.5 G/DL
LEUKOCYTE COUNT [2]: 10.58 x10E3/uL
LYMPHOCYTE [2]: 90.17%
MEAN CORPUSCULAR HEMOGLOBIN [2]: 24.27 pg
MEAN CORPUSCULAR HEMOGLOBIN CONCENTRATION [2]: 38.82 G/DL
MEAN CORPUSCULAR VOLUME [2]: 62.48 fL
MONOCYTE [2]: 1.17%
NEUTROPHIL [2]: 8.67%
NUCLEATED RED BLOOD CELLS [2]: 0.17 /100WBC
PLATELET COUNT [2]: 807.17 x10E3/uL
ALANINE AMINOTRANSFERASE [2]: 66.83 u/L
ALBUMIN [2]: 3.73 G/DL
ALKALINE PHOSPHATASE [2]: 286.17 u/L
ASPARTATE AMINOTRANSFERASE [2]: 142.33 u/L
BLOOD UREA NITROGEN [2]: 14.67 mg/dL
CARBON DIOXIDE [2]: 25.5 mmol/L
CHLORIDE [2]: 89.17 MEQ/L
CHOLESTEROL [2]: 75.17 mg/dL
CREATINE PHOSPHOKINASE [2]: 310.67 u/L
CREATININE [2]: 0.2 mg/dL
GLUCOSE [2]: 153 mg/dL
LACTATE DEHYDROGENASE [2]: 1594 u/L
LIPASE [2]: 14.83 u/L
PHOSPHORUS [2]: 11.28 mg/dL
POTASSIUM [2]: 8.46 MEQ/L
SODIUM [2]: 126.88 MEQ/L
TOTAL BILIRUBIN [2]: 0.37 mg/dL
TOTAL PROTEIN [2]: 5.53 G/DL
URIC ACID [2]: 1.52 mg/dL
ABSOLUTE BASOPHIL [3]: 0 CELLS/uL
ABSOLUTE EOSINOPHIL [3]: 32.67 CELLS/uL
ABSOLUTE LYMPHOCYTE [3]: 10341.33 CELLS/uL
ABSOLUTE MONOCYTE [3]: 0 CELLS/uL
BASOPHIL [3]: 0%
EOSINOPHIL [3]: 0.33%
ERYTHROCYTE COUNT [3]: 5.55 x10E6/uL
HEMATOCRIT [3]: 34.1%
HEMOGLOBIN [3]: 13.57 G/DL
LEUKOCYTE COUNT [3]: 10.97 x10E3/uL
LYMPHOCYTE [3]: 94.33%
MEAN CORPUSCULAR HEMOGLOBIN [3]: 24.43 pg
MEAN CORPUSCULAR HEMOGLOBIN CONCENTRATION [3]: 39.77 G/DL
MEAN CORPUSCULAR VOLUME [3]: 61.4 fL
MONOCYTE [3]: 0%
NEUTROPHIL [3]: 5.33%
NUCLEATED RED BLOOD CELLS [3]: 0 /100WBC
PLATELET COUNT [3]: 1095 x10E3/uL
ALANINE AMINOTRANSFERASE [3]: 51.33 u/L
ALBUMIN [3]: 3.83 G/DL
ALKALINE PHOSPHATASE [3]: 333.67 u/L
ASPARTATE AMINOTRANSFERASE [3]: 87.33 u/L
BLOOD UREA NITROGEN [3]: 11.33 mg/dL
CARBON DIOXIDE [3]: 25.67 mmol/L
CHLORIDE [3]: 103 MEQ/L
CHOLESTEROL [3]: 70 mg/dL
CREATINE PHOSPHOKINASE [3]: 944.67 u/L
CREATININE [3]: 0.19 mg/dL
GLUCOSE [3]: 199 mg/dL
LACTATE DEHYDROGENASE [3]: 127 u/L
LIPASE [3]: 10.33 u/L
PHOSPHORUS [3]: 11.7 mg/dL
POTASSIUM [3]: 5.37 MEQ/L
SODIUM [3]: 142.27 MEQ/L
TOTAL BILIRUBIN [3]: 0.1 mg/dL
TOTAL PROTEIN [3]: 5.5 G/DL
URIC ACID [3]: 1.6 mg/dL
ABSOLUTE BASOPHIL [4]: 0 CELLS/uL
ABSOLUTE EOSINOPHIL [4]: 32 CELLS/uL
ABSOLUTE LYMPHOCYTE [4]: 5295.33 CELLS/uL
ABSOLUTE MONOCYTE [4]: 16 CELLS/uL
ABSOLUTE SEGMENTED NEUTROPHIL [4]: 290 CELLS/uL
BASOPHIL [4]: 0%
EOSINOPHIL [4]: 0.67%
ERYTHROCYTE COUNT [4]: 5.43 x10E6/uL
HEMATOCRIT [4]: 33.87%
HEMOGLOBIN [4]: 13.53 G/DL
LEUKOCYTE COUNT [4]: 5.63 x10E3/uL
LYMPHOCYTE [4]: 94%
MEAN CORPUSCULAR HEMOGLOBIN [4]: 24.9 pg
MEAN CORPUSCULAR HEMOGLOBIN CONCENTRATION [4]: 39.97 G/DL
MEAN CORPUSCULAR VOLUME [4]: 62.43 fL
MONOCYTE [4]: 0.33%
NEUTROPHIL [4]: 5%
NUCLEATED RED BLOOD CELLS [4]: 0 /100WBC
PLATELET COUNT [4]: 1171.33 x10E3/uL
ALANINE AMINOTRANSFERASE [4]: 53.33 u/L
ALBUMIN [4]: 4.17 G/DL
ALKALINE PHOSPHATASE [4]: 336 u/L
ASPARTATE AMINOTRANSFERASE [4]: 97.33 u/L
BLOOD UREA NITROGEN [4]: 10 mg/dL
CARBON DIOXIDE [4]: 31.33 mmol/L
CHLORIDE [4]: 101 MEQ/L
CHOLESTEROL [4]: 63.33 mg/dL
CREATINE PHOSPHOKINASE [4]: 631.67 u/L
CREATININE [4]: 0.13 mg/dL
GLUCOSE [4]: 157 mg/dL
LACTATE DEHYDROGENASE [4]: 132 u/L
LIPASE [4]: 11 u/L
PHOSPHORUS [4]: 10.57 mg/dL
POTASSIUM [4]: 5.78 MEQ/L
SODIUM [4]: 147.05 MEQ/L
TOTAL BILIRUBIN [4]: 0.13 mg/dL
TOTAL PROTEIN [4]: 5.93 G/DL
URIC ACID [4]: 0.77 mg/dL

Source: ChEMBL document CHEMBL3885881, “DrugMatrix”
